Laboratory results as given in ChEMBL document CHEMBL4433253, “Development of a novel inducer for EBV lytic therapy” (Bioorg Med Chem Lett, 2019).
Values after ≈ are worked out from the molar mass of the structure shown. Active and inactive are the calls of the source. No cut-off for these calls is given here.

Assays:
Human gammaherpesvirus 4 [1] = assay: Reactivation of latent EBV infected in human MUTU-I cells incubated for 48 hrs by steady-glo luciferase reporter assay; type: functional, organism-based; details: human gammaherpesvirus 4, MUTU-I
Human gammaherpesvirus 4 [2] = assay: Reactivation of latent EBV in human AGS cells xenografted NSG mouse assessed as increase in BZLF1 protein level in tumor mass at 25 mg/kg, ip qd for 3 days starting from 35 days post infection by immunoblot analysis
Human gammaherpesvirus 4 [3] = assay: Reactivation of latent EBV in human SNU-719 cells xenografted NSG mouse assessed as increase in BZLF1 protein level in tumor mass at 30 mg/kg, ip qd for 4 days starting from 28 days post infection by immunoblot analysis; type: functional, organism-based
Human gammaherpesvirus 4 [4] = assay: Reactivation of latent EBV infected in human MUTU-I cells incubated for 48 hrs by steady-glo luciferase reporter assay relative to C60; type: functional; set-up: concentration or dose not given beside the values
[5] = Half life in mouse liver microsomes; type: ADME, Microsome
[6] = Stability in human plasma; type: ADME, cell-free; details: read-out: Stability
[7] = Half life in human liver microsomes; type: ADME, Microsome
[8] = Aqueous solubility of compound in pH 7.4 PBS buffer; type: physicochemical
[9] = Stability in mouse plasma; type: ADME, cell-free; details: read-out: Stability

COc1ccc(C2c3[nH]c4ccc(Cl)cc4c3CCN2S(=O)(=O)c2ccccc2OC)cc1 (centres undefined)
EC50 (Human gammaherpesvirus 4 [1]): 4010 nM

COc1ccc(C2c3[nH]c4ccc(Cl)cc4c3CCN2C(=O)c2ccccc2OC)cc1 (centres undefined)
EC50 (Human gammaherpesvirus 4 [1]): 4270 nM

COC(=O)c1sccc1NC(=O)N1CCc2c([nH]c3ccc(OC)cc23)C1c1ccc(C)cc1 (centres undefined)
EC50 (Human gammaherpesvirus 4 [1]): 576 nM

O=C(c1cccc(CN2CCOCC2)c1)N1CCc2c([nH]c3ccc(Cl)cc23)C1c1ccc(Cl)cc1 (centres undefined)
EC50 (Human gammaherpesvirus 4 [1]): 277 nM

COCCOCCOCCOc1ccc(C2c3[nH]c4ccc(Cl)cc4c3CCN2C(=O)Nc2ccccc2Cl)cc1 (centres undefined)
Activity (Human gammaherpesvirus 4 [2]): Active | Activity (Human gammaherpesvirus 4 [3]): Active

COc1ccc(C2c3[nH]c4ccc(Cl)cc4c3CCN2S(=O)(=O)c2ccc(OC)cc2)cc1 (centres undefined)
EC50 (Human gammaherpesvirus 4 [1]): 8030 nM

COc1ccc(C2c3[nH]c4ccc(Cl)cc4c3CCN2C(=O)Nc2cccc(OC)c2)cc1 (centres undefined)
Activity (Human gammaherpesvirus 4 [4]): 43%

COC(=O)c1cccc(NC(=O)N2CCc3c([nH]c4ccc(Cl)cc34)C2c2ccc(OC)cc2)c1 (centres undefined)
Activity (Human gammaherpesvirus 4 [4]): 17%

COc1ccc(C2NCCc3c2[nH]c2ccc(Cl)cc32)cc1 (centres undefined)
EC50 (Human gammaherpesvirus 4 [1]): 215 nM

COC(=O)c1ccccc1NC(=O)N1CCc2c([nH]c3ccc(Cl)cc23)C1c1ccc(OC)cc1 (centres undefined)
t1/2 [5]: > 1.5 h | half-life [6]: > 6 h | EC50 (Human gammaherpesvirus 4 [1]): 157 nM | t1/2 [7]: 1.3 h | solubility [8]: < 10 µg/mL | half-life [9]: > 6 h

COc1ccc(C2c3[nH]c4ccc(Cl)cc4c3CCN2C(=O)c2cccc(CN3CCOCC3)c2)cc1 (centres undefined)
EC50 (Human gammaherpesvirus 4 [1]): 277 nM

COCCOCCOCCOc1ccc(C2c3[nH]c4ccc(Cl)cc4c3CCN2C(=O)Nc2ccccc2C(=O)OC)cc1 (centres undefined)
Activity (Human gammaherpesvirus 4 [2]): Active | Activity (Human gammaherpesvirus 4 [3]): Active

COc1ccc(NC(=O)N2CCc3c([nH]c4ccc(Cl)cc34)C2c2ccc(OC)cc2)cc1 (centres undefined)
Activity (Human gammaherpesvirus 4 [4]): 31%

COc1ccc(C2c3[nH]c4ccc(Cl)cc4c3CCN2C(=O)c2ccc(Cl)cc2)cc1 (centres undefined)
EC50 (Human gammaherpesvirus 4 [1]): 228 nM

COc1cccc(C(=O)N2CCc3c([nH]c4ccc(Cl)cc34)C2c2ccc(O)cc2)c1 (centres undefined)
EC50 (Human gammaherpesvirus 4 [1]): 310 nM | Activity (Human gammaherpesvirus 4 [3]): Active

COc1ccc(C2c3[nH]c4ccc(Cl)cc4c3CCN2C(=O)c2ccccc2C(F)(F)F)cc1 (centres undefined)
EC50 (Human gammaherpesvirus 4 [1]): 1580 nM

CCOC(=O)c1ccccc1NC(=O)N1CCc2c([nH]c3ccc(OC)cc23)C1c1ccc(C)cc1 (centres undefined)
EC50 (Human gammaherpesvirus 4 [1]): 1080 nM

COc1ccc(C2c3[nH]c4ccc(Cl)cc4c3CCN2C(=O)Nc2ccc(OC)cc2OC)cc1 (centres undefined)
EC50 (Human gammaherpesvirus 4 [1]): 1130 nM

COC(=O)c1ccccc1NC(=O)N1CCc2c([nH]c3ccccc23)C1c1ccc(OC)cc1 (centres undefined)
Activity (Human gammaherpesvirus 4 [4]): 14%

COc1ccc(C2c3[nH]c4ccc(Cl)cc4c3CCN2C(=O)c2cccc(OC)c2)cc1 (centres undefined)
t1/2 [5]: 0.517 h | half-life [6]: > 6 h | EC50 (Human gammaherpesvirus 4 [1]): 168 nM | t1/2 [7]: > 1.5 h | solubility [8]: 166 µg/mL (≈ 371 µM) | half-life [9]: > 6 h

COc1ccc(C2c3[nH]c4ccc(Cl)cc4c3CCN2C(=O)c2ccccc2Cl)cc1 (centres undefined)
EC50 (Human gammaherpesvirus 4 [1]): 2430 nM

COc1ccc(C2c3[nH]c4ccc(Cl)cc4c3CCN2C(=O)Nc2ccccc2OC)cc1 (centres undefined)
EC50 (Human gammaherpesvirus 4 [1]): 169 nM | Activity (Human gammaherpesvirus 4 [4]): 79%

COc1ccc(C2c3[nH]c4ccc(Cl)cc4c3CCN2C(=O)c2ccc(C(F)(F)F)cc2)cc1 (centres undefined)
EC50 (Human gammaherpesvirus 4 [1]): 434 nM

COc1ccc(C(=O)N2CCc3c([nH]c4ccc(Cl)cc34)C2c2ccc(OC)cc2)cc1 (centres undefined)
EC50 (Human gammaherpesvirus 4 [1]): 154 nM

COc1ccc(C2c3[nH]c4ccccc4c3CCN2C(=O)Nc2ccccc2OC)cc1 (centres undefined)
Activity (Human gammaherpesvirus 4 [4]): 15%
